Earlier results, collected in patent publication US7892523B2, “Cosmetic process for the treatment of the skin with sun-protection products and sun-protection products combination” (Coty B.V., priority 2004, dated 2011).

Details: known RPFs of standard antioxidants / usual formulations

Cc1c(C)c2c(c(C)c1O)CCC(C)(CCCC(C)CCCC(C)CCCC(C)C)O2 (racemic) [DL-α-tocopherol]
radical protection factor (RPF): 41,200 ×10^14 radicals/mg

CC(=O)OC/C=C(C)/C=C/C=C(C)/C=C/C1=C(C)CCCC1(C)C [all-trans-retinol acetate]
radical protection factor (RPF): 196 ×10^14 radicals/mg

CC1=C(/C=C/C(C)=C/C=C/C(C)=C/CO)C(C)(C)CCC1 [all-trans-retinol]
radical protection factor (RPF): 827 ×10^14 radicals/mg

CC(=O)Oc1c(C)c(C)c2c(c1C)CCC(C)(CCC[C@H](C)CCC[C@H](C)CCCC(C)C)O2 (stereo partly drawn) [α-tocopherol acetate]
radical protection factor (RPF): 48 ×10^14 radicals/mg
